Source: patent US12285393B2, “Roles of modulators of intersectin-Cdc42 signaling in Alzheimer's disease” (priority 2017, dated 2025)

Legend:
[1] = biological target: T1, Cdc42 (Homo sapiens, UniProt P60953); conditions: in the presence of activating upstream signaling compounds; cited from earlier work
Target sequence in this assay (P60953 whole entry, species assumed, the tested form may be a part): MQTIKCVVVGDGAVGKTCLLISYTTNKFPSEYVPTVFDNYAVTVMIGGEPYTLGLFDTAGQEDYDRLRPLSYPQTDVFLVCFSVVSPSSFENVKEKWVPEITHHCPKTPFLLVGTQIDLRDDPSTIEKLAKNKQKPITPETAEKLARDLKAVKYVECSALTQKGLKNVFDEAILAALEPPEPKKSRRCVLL

[2] = biological target: T1, Cdc42; test: Rho-GEF IC50 assay (GEF/DH domain-mediated mant-GTP binding); format: biochemical; design: purchased Cytoskeleton Inc; conditions: read-out: IC50, GEF/DH domain-mediated mant-GTP binding/Cdc42 activation
Description: Rho-GEF IC50 Assay: Rho-GEF assay (Cytoskeleton Inc., Denver, Colorado, United States of America) was conducted per manufacturer's instructions (λex=360 nm, λem=460 nm). Briefly, a solution (50 μL) of purified Rho GTPase (1 μM) and mant-GTP (1.5 μM) with or without compound (0.001-500 μM) was prepared and the absorbance monitored for 10-30 min to obtain the background/baseline. The addition of purified GEF/DH domain (0.08-0.2 μM) was carried out simultaneously and the absorbance was recorded for 30-45 min. The linear slope following the addition of the GEF was calculated and expressed as percentage of the control and plotted on an IC50 curve.
Target sequence in this assay (P60953 whole entry, the tested form may be a part): as the sequence (P60953 whole entry, species assumed, the tested form may be a part) above

[3] = system: 3×Tg-AD mice; test: Burrowing test; format: in vivo; conditions: 3×Tg AD mouse model; 20 μg/g I.P. once a week, 4 weeks
Excerpt: Six-month-old C57/BL6 (WT) and 3×Tg-AD mice with an average weight of 24 g from Jackson Laboratory (Bar Harbor, Maine, United States of America) were used. The 3×Tg-AD mice in hybrid 129/C57BL/6 background contain two mutant human transgenes, hAPP harboring Swedish mutation (hAPPswe) and mutant htau (htau301L) under a neuron-specific promoter, and also contain the knock-in mutant presenilin 1 (PS1M146V). See Oddo et al. (2003) Neuron 39:409-421). 3×Tg-AD mice were received from Jackson Laboratory as Psen1 B6:129-Psen1<tmMpm>Tg(APPSwetauP301L)1Lfa/J and the wild type control as SF2: (B6129SF1/J+p+Tyr-c+Mgf-SIJ)F2. All mice were subjected to two weeks of training for familiarizing behavioral test procedures. Subsequently, mice were assayed to establish a baseline of behavior tests before ZCL compound treatment. Then, mice were separated into three treatment groups (Control, ZCL278 and ZCL279). Both ZCL278 and ZCL279 were dissolved in sesame oil with 5% DMSO and each treatment was administrated via an intraperitoneal injection. All treatment groups of mice were treated once a week. Control group was treated with 130 μl 5% DMSO in sesame oil. […]
Burrowing test: At least 2.5 hours before the start of the dark cycle (4:30 pm), mice from each selected treatment group were housed in individual cages. […] After 2 hours, the food left in the tube was measured.

SMILES | effect on Cdc42 [1] | IC50 [2] | instinctual behavior: food burrowing [3]
Cc1cc(C)nc(NS(=O)(=O)c2ccc(NC(=S)NC(=O)COc3ccc(Br)cc3Cl)cc2)n1 [ZCL278, 4-(3-(2-(4-bromo-2-chloro-phenoxy)-acetyl)-thioureido)-N-(4,6-dimethylpyrimidin-2-yl)-benzenesulfonamide] | inhibit Cdc42 | 7.52 µM | 
O=S(=O)(Nc1ccccc1O)c1ccc2oc3ccc(S(=O)(=O)Nc4ccccc4O)cc3c2c1 [ZCL279, N^2,N^8-bis(2-hydroxyphenyl)dibenzo[b,d]furan-2,8-disulfonamide] |  |  | improve instinctual behavior
